Measurements from US9113629B2, “4-amino-6-(4-substituted-phenyl)-picolinates and 6-amino-2-(4-substituted-phenyl)-pyrimidine-4-carboxylates and their use as herbicides” (DOW AGROSCIENCES LLC, priority 2013, dated 2015).
Read-outs that look alike come from different tables or passages of the source.

What was measured:
Assay type in all cases: in vivo
[1] = system: AMARE: redroot pigwseed (Amaranthus retroflexus); test: Post-emergent Test I herbicidal activity; settings: post-emergence, 4.04 kg ai/ha, read-out: Visual Growth Reduction (%), AMARE
[2] = system: AVEFA: wild oats (Avena fatua); test: Post-emergent Test I herbicidal activity; settings: post-emergence, 336 h, 4.04 kg ai/ha, read-out: Visual Growth Reduction (%) 14 Days After Application, AVEFA
[3] = system: SETFA: giant foxtail (Setaria faberi); test: Post-emergent Test I herbicidal activity; settings: post-emergence, 336 h, 4.04 kg ai/ha, read-out: Visual Growth Reduction (%) 14 Days After Application, SETFA
[4] = system: IPOHE: ivyleaf morningglory (Ipomoea hederecea); test: Post-emergent Test I herbicidal activity; settings: post-emergence, 336 h, 4.04 kg ai/ha, read-out: Visual Growth Reduction (%) 14 Days After Application, IPOHE
[5] = system: ECHCG: barnyardgrass (Echinochloa crus-galli); test: Post-emergent Test I herbicidal activity; settings: post-emergence, 336 h, 4.04 kg ai/ha, read-out: Visual Growth Reduction (%) 14 Days After Application, ECHCG
[6] = system: HELAN: sunflower (Helianthus annuus); test: Post-emergent Test I herbicidal activity; settings: post-emergence, 336 h, 4.04 kg ai/ha, read-out: Visual Growth Reduction (%) 14 Days After Application, HELAN
[7] = system: test plant species in Direct Seeded Rice; test: Postemergence herbicidal activity in direct seeded rice (Table 13); settings: for pest or weed control at 35 g/ha / pest or weed control at 70 g/ha: post-emergence, 504 h; for pest or weed control at 35 g/ha: 35 g ai/ha; for pest or weed control at 70 g/ha: 70 g ai/ha
Outline: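 Visual injury scores (0 no injury to 100 complete kill) taken 20-22 days after treatment were converted by probit analysis into GR20–GR90 doses. Treatment was an overhead track spray at 187 L/ha onto second-to-third true leaf plants, using acetone/DMSO (final 16.2%/0.5%) with Agri-dex crop oil; solvent blank served as control.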

[8] = BRAPP: broadleaf signalgrass, Brachiaria platyphylla, probit analysis
[9] = CYPSS: sedge (Cyperus difformis, esculentus, iria), probit analysis
[10] = ECHSS: barnyardgrass (Echinochloa crus-galli), junglerice (Echinochloa colonum), probit analysis
[11] = LEFSS: sprangletop (Leptochloa chinensis, Leptochloa dubia), probit analysis
[12] = SCPJU: Japanese bulrush, Scirpus juncoides, probit analysis
[13] = SEBEX: hemp sesbania, Sesbania exaltata, probit analysis
[14] = BRAPP: broadleaf signalgrass, Brachiaria platyphylla, read-out: Visual Growth Reduction (%) 21 Days After Application BRAPP
[15] = CYPSS: sedge (Cyperus difformis, esculentus, iria), read-out: Visual Growth Reduction (%) 21 Days After Application CYPSS
[16] = ECHSS: barnyardgrass (Echinochloa crus-galli), junglerice (Echinochloa colonum), read-out: Visual Growth Reduction (%) 21 Days After Application ECHSS
[17] = LEFSS: sprangletop (Leptochloa chinensis, Leptochloa dubia), read-out: Visual Growth Reduction (%) 21 Days After Application LEFSS
[18] = ORYSS: Oryza sativa, read-out: Visual Growth Reduction (%) 21 Days After Application ORYSS
[19] = SCPJU: Japanese bulrush, Scirpus juncoides, read-out: Visual Growth Reduction (%) 21 Days After Application SCPJU
[20] = SEBEX: hemp sesbania, Sesbania exaltata, read-out: Visual Growth Reduction (%) 21 Days After Application SEBEX

COC(=O)c1nc(-c2ccc(C#N)c(F)c2)c(F)c(N)c1Cl [Compound 135, methyl 4-amino-3-chloro-6-(4-cyano-3-fluorophenyl)-5-fluoropicolinate]
pest or weed control at 4040 g/ha [1]: 95 to 100% | pest or weed control at 4040 g/ha [2]: 60 to 74% | pest or weed control at 4040 g/ha [3]: 75 to 84% | pest or weed control at 4040 g/ha [4]: 85 to 94% | pest or weed control at 4040 g/ha [5]: 95 to 100% | pest or weed control at 4040 g/ha [6]: 95 to 100% | GR50 BRAPP [7, 8]: 4 g ai/ha | GR80 BRAPP [7, 8]: 11 g ai/ha | GR50 CYPSS [7, 9]: 5 g ai/ha | GR80 CYPSS [7, 9]: 49 g ai/ha | GR50 ECHSS [7, 10]: 17 g ai/ha | GR80 ECHSS [7, 10]: 70 g ai/ha | GR50 LEFSS [7, 11]: 57 g ai/ha | GR80 LEFSS [7, 11]: 114 g ai/ha | GR20 ORYSS ([7]; ORYSS: Oryza sativa (crop), probit analysis): >70 g ai/ha | GR50 SCPJU [7, 12]: 2 g ai/ha | GR80 SCPJU [7, 12]: 5 g ai/ha | GR50 SEBEX [7, 13]: 1 g ai/ha | GR80 SEBEX [7, 13]: 1 g ai/ha | pest or weed control at 35 g/ha [7, 14]: 85 to 94% | pest or weed control at 70 g/ha [7, 14]: 85 to 94% | pest or weed control at 35 g/ha [7, 15]: 75 to 84% | pest or weed control at 70 g/ha [7, 15]: 85 to 94% | pest or weed control at 35 g/ha [7, 16]: 75 to 84% | pest or weed control at 70 g/ha [7, 16]: 75 to 84% | pest or weed control at 35 g/ha [7, 17]: 0 to 29% | pest or weed control at 70 g/ha [7, 17]: 60 to 74% | pest or weed control at 35 g/ha [7, 18]: 0 to 29% | pest or weed control at 70 g/ha [7, 18]: 0 to 29% | pest or weed control at 35 g/ha [7, 19]: 85 to 94% | pest or weed control at 70 g/ha [7, 19]: 95 to 100% | pest or weed control at 35 g/ha [7, 20]: 95 to 100% | pest or weed control at 70 g/ha [7, 20]: 95 to 100%
